Assay results published in PubChem BioAssay (NCI).
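1) Cells in 96-well plates. 2) Compound, 48 h, 5 concentrations. 3) Linear interpolation between surrounding doses. 4) Unreached endpoint = highest concentration. TGI: concentration producing complete growth inhibition.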 Where a SMILES comes first, the peptide text is derived from it. The star is where a group is joined. Boc = CC(C)(C)OC(=O)*

How the values were obtained:
Assay in all cases: NCI tumour cell line growth inhibition, 48 h
[1] = tested on: DU-145 prostate
[2] = tested on: MDA-N
[3] = tested on: NCI/ADR-RES ovarian
[4] = tested on: IGROV1 ovarian
[5] = tested on: HS 578T breast
[6] = tested on: HT29 colon
[7] = tested on: NCI-H522 lung
[8] = tested on: A498 renal
[9] = tested on: HOP-62 NSCLC
[10] = tested on: MDA-MB-231 breast
[11] = tested on: SK-MEL-2 melanoma
[12] = tested on: SK-MEL-5 melanoma
[13] = tested on: NCI-H460 lung
[14] = tested on: SNB-19 CNS
[15] = tested on: HCC-2998 colon
[16] = tested on: MOLT-4 leukemia
[17] = tested on: SF-295 CNS
[18] = tested on: NCI-H23 lung
[19] = tested on: RXF 393 renal
[20] = tested on: SR leukemia
[21] = tested on: HL-60(TB) leukemia
[22] = tested on: SNB-75 CNS
[23] = tested on: LOX IMVI melanoma
[24] = tested on: CCRF-CEM leukemia
[25] = tested on: COLO 205 colon
[26] = tested on: U251 CNS
[27] = tested on: MCF7 breast
[28] = tested on: ACHN renal
[29] = tested on: OVCAR-4 ovarian
[30] = tested on: PC-3 prostate
[31] = tested on: CAKI-1 renal
[32] = tested on: SN12C renal
[33] = tested on: UO-31 renal
[34] = tested on: UACC-257 melanoma
[35] = tested on: UACC-62 melanoma
[36] = tested on: HOP-92 NSCLC
[37] = tested on: SK-MEL-28 melanoma
[38] = tested on: MDA-MB-435
[39] = tested on: HCT-15 colon
[40] = tested on: A549 NSCLC
[41] = tested on: EKVX NSCLC
[42] = tested on: 786-0 renal
[43] = tested on: KM12 colon
[44] = tested on: SF-268 CNS
[45] = tested on: SK-OV-3 ovarian
[46] = tested on: NCI-H226 lung
[47] = tested on: OVCAR-8 ovarian
[48] = tested on: M14 melanoma
[49] = tested on: K-562 leukemia
[50] = tested on: MALME-3M melanoma
[51] = tested on: TK-10 renal
[52] = tested on: RPMI-8226 leukemia
[53] = tested on: OVCAR-5 ovarian
[54] = tested on: HCT-116 colon
[55] = tested on: SW-620 colon
[56] = tested on: T-47D breast
[57] = tested on: BT-549 breast
[58] = tested on: SF-539 CNS
[59] = tested on: OVCAR-3 ovarian

Cc1nnc(N)nc1/C=C\c1ccc(N(C)C)cc1
TGI [1]: > 100 µM | TGI [2]: > 100 µM | TGI [3]: > 100 µM | TGI [4]: > 100 µM | TGI [5]: > 100 µM | TGI [6]: > 100 µM | TGI [7]: 17.1 µM | TGI [8]: > 100 µM | TGI [9]: > 100 µM | TGI [10]: > 100 µM | TGI [11]: > 100 µM | TGI [12]: > 100 µM | TGI [13]: > 100 µM | TGI [14]: > 100 µM | TGI [15]: 23.8 µM | TGI [16]: > 100 µM | TGI [17]: > 100 µM | TGI [18]: > 100 µM | TGI [19]: > 100 µM | TGI [20]: > 100 µM | TGI [21]: 8.91 µM | TGI [22]: > 100 µM | TGI [23]: 20.1 µM | TGI [24]: > 100 µM | TGI [25]: > 100 µM | TGI [26]: > 100 µM | TGI [27]: > 100 µM | TGI [28]: > 100 µM | TGI [29]: > 100 µM | TGI [30]: > 100 µM | TGI [31]: > 63.3 µM | TGI [32]: > 100 µM | TGI [33]: > 100 µM | TGI [34]: > 100 µM | TGI [35]: > 66.9 µM | TGI [36]: > 100 µM | TGI [37]: > 100 µM | TGI [38]: > 100 µM | TGI [39]: > 59.2 µM | TGI [40]: > 100 µM | TGI [41]: > 100 µM | TGI [42]: > 100 µM | TGI [43]: > 100 µM | TGI [44]: > 100 µM | TGI [45]: > 100 µM | TGI [46]: > 100 µM | TGI [47]: > 100 µM | TGI [48]: > 100 µM | TGI [49]: > 100 µM | TGI [50]: > 100 µM | TGI [51]: > 100 µM | TGI [52]: > 100 µM | TGI [53]: > 100 µM | TGI [54]: > 100 µM | TGI [55]: > 100 µM | TGI [56]: > 100 µM | TGI [57]: > 100 µM

CC(NC(=O)OC(C)(C)C)C(=O)NC(Cc1ccccc1)C(=O)NCC(=O)O (stereo not drawn) (Boc-Ala-Phe-Gly-OH; configuration not given here)
TGI [1]: > 100 µM | TGI [2]: > 100 µM | TGI [3]: > 100 µM | TGI [4]: > 100 µM | TGI [5]: > 100 µM | TGI [6]: > 100 µM | TGI [7]: > 100 µM | TGI [8]: > 100 µM | TGI [9]: > 100 µM | TGI [10]: > 100 µM | TGI [11]: > 100 µM | TGI [12]: > 100 µM | TGI [13]: > 100 µM | TGI [14]: > 100 µM | TGI [15]: > 100 µM | TGI [16]: > 100 µM | TGI [58]: > 100 µM | TGI [17]: > 100 µM | TGI [18]: > 100 µM | TGI [19]: > 100 µM | TGI [20]: > 100 µM | TGI [21]: > 100 µM | TGI [22]: > 100 µM | TGI [23]: > 100 µM | TGI [24]: > 100 µM | TGI [25]: > 100 µM | TGI [26]: > 100 µM | TGI [27]: > 100 µM | TGI [28]: > 100 µM | TGI [30]: > 100 µM | TGI [31]: > 100 µM | TGI [32]: > 100 µM | TGI [33]: > 100 µM | TGI [34]: > 100 µM | TGI [35]: > 100 µM | TGI [36]: > 100 µM | TGI [37]: > 100 µM | TGI [38]: > 100 µM | TGI [39]: > 100 µM | TGI [40]: > 100 µM | TGI [41]: > 100 µM | TGI [42]: > 100 µM | TGI [43]: > 100 µM | TGI [44]: > 100 µM | TGI [45]: > 100 µM | TGI [46]: > 100 µM | TGI [47]: > 100 µM | TGI [59]: > 100 µM | TGI [48]: > 100 µM | TGI [49]: > 100 µM | TGI [50]: > 100 µM | TGI [51]: > 100 µM | TGI [52]: > 100 µM | TGI [53]: > 100 µM | TGI [54]: > 100 µM | TGI [55]: > 100 µM | TGI [56]: > 100 µM | TGI [57]: > 100 µM
